Measurements taken from PMC6499371 (Chemical communications (Cambridge, England), 2019).

Biological target: T1, porcine trehalase (Sus scrofa, UniProt I3LIR5)
T1 sequence (I3LIR5 24-556): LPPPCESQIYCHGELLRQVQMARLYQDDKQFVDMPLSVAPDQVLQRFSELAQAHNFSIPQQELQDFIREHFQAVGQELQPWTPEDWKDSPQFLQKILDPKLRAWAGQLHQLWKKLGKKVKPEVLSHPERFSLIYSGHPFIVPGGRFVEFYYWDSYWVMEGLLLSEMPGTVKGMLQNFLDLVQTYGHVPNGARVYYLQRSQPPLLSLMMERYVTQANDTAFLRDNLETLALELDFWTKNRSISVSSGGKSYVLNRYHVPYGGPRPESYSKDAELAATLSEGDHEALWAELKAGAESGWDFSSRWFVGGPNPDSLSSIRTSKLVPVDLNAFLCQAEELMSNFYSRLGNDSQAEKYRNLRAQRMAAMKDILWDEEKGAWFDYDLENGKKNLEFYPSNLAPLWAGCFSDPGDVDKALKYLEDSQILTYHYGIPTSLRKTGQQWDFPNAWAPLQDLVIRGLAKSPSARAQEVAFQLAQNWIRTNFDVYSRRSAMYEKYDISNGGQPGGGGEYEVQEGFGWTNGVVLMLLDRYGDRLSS
Test: UV spectrophotometric coupled assay of trehalose hydrolysis
Assay type: biochemical

IC50: 1130 µM
SMILES: OC[C@H]1O[C@H](O[C@H]2O[C@H](CO)[C@@H](O)[C@H](O)[C@H]2O)[C@@H](O)[C@@H](O)[C@@H]1O [compound 2, mannotrehalose]
